Source: US10954269B2, “Anti-inflammatory tripeptides” (Dr. August Wolff Gmbh & Co. KG Arzneimittel, priority 2013, dated 2021)

Columns and labels:
primary human T cells = assay: Gene expression of pro-inflammatory cytokines (RT-qPCR) in primary human T cells; assay type: cell-based; settings: PMA/Ionomycin, 10^−7 M, 10^−9 M and 10^−11 M
Excerpt: (§1) Cells were activated with PMA/Ionomycin and treated with PBS, α-MSH, K(D)PT and Examples 3, 8 and 9, respectively, at a concentration of 10^−9 M. Values are normalized to β-actin and are shown relative to the gene expression in PBS-stimulated cells.
(§2) Primary T-cells were isolated from peripheral blood from healthy volunteers and from secondary lymphatic organs from naïve C57BL/6 mice, respectively. The cells were stimulated with phorbol-12-myristate-13-acetate (PMA)/Ionomycin and interferon-gamma (IFN-γ), respectively, for 48 h to activate the cells. The activated cells release pro-inflammatory cytokines. In parallel a human (HaCaT) keratinocyte cell line was activated with PMA/Ionomycin and IFN-γ, respectively, too. […] At the same time release of anti-inflammatory IL-10 was inhibited. Two days after addition of PMA/Ionomycin and IFN-γ, respectively, the induction of IL-1 secretion was determined in the supernatant for proving that the cells are activated. […] The anti-inflammatory properties of the tripeptides were determined 48 h and 72 h following stimulation. A 13-plex-system based FACS analysis was used for showing the reduced secretion of pro-inflammatory cytokines in the supernatant. Data for IL-1, IL-2, IL-6, IL-12p70 IL-17, IFN-γ and TNF-α are considered to be most relevant. Thus, analysis of the anti-inflammatory properties of the tripeptides is preferably based on the results obtained for these analytes. […] Using this method the gene expression of pro-inflammatory markers like IL-6, IL-17, IFN-γ and TNF-α was determined.
(§3) In a third experiment murine and human T cells and HaCaT cells were stimulated with PMA/Ionomycin and treated with Examples 14, 15, 16 and 17 at 10^−7 M, 10^−9 M and 10^−11 M. Cytokine concentrations (IFN-γ, IL-17 and IL-10 for T cells and IFN-γ for HaCat) were assessed in the supernatants using the Luminex technology. Expression of genes coding for Il-1β, IL-6 and TNF-α was determined. […] Moreover, concentrations of pro-inflammatory cytokines IFN-γ and IL-17 was reduced in the supernatants whereas the concentration of anti-inflammatory cytokine IL-10 was increased.

primary human T-cells = assay: Cytokine secretion on protein level in activated primary human T-cells (13-plex FACS / Luminex, supernatant); assay type: cell-based; settings: human T cells; PMA/Ionomycin; Luminex; all tested concentrations
How it was run: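 Primary T-cells from peripheral blood of healthy volunteers, or HaCaT cells, were activated with PMA/Ionomycin or IFN-γ for 48 h and treated with tripeptides. Supernatants were collected 48 h and 72 h after stimulation and cytokines (IL-1, IL-2, IL-6, IL-12p70, IL-17, IFN-γ, TNF-α) were measured by 13-plex FACS.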

Balb/c mice = assay: Imiquimod-induced psoriasis in mice; assay type: in vivo; settings: i.v.
Procedure: Psoriasis in Balb/c mice is induced by daily application of topical Imiquimod for 8 days. Animal are treated with the test items (topical or systemically). On day 9 the skin phenotype is characterized using a clinical score system (0=normal mouse skin; 1=mild reddening; 2=erythema; 3=erythema, swelling; 4=erythema, swelling, scaling; 5=erythema, swelling, scaling, (bloody) lesions). Skin is analyzed histologically. Lymph nodes are analyzed by flow cytometry and RT-qPCR. mRNA expression in lesional skin is analyzed by RT-qPCR. Cytokine concentrations in the serum are assessed using the Luminex technology.

primary murine T-cells = assay: Cytokine secretion on protein level in activated primary murine T-cells (13-plex FACS / Luminex, supernatant); assay type: cell-based, C57BL/6 mice; settings: murine T cells; PMA/Ionomycin; Luminex; all tested concentrations
How it was run: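 T-cells from secondary lymphatic organs of naïve C57BL/6 mice, stimulated with PMA/Ionomycin or IFN-γ; supernatant cytokines measured by 13-plex FACS 48 h and 72 h after stimulation. In another run, PMA/Ionomycin-stimulated cells received compounds at 10^−7, 10^−9 and 10^−11 M, with IFN-γ, IL-17 and IL-10 measured by Luminex.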

primary murine T cells = assay: Gene expression of pro-inflammatory cytokines (RT-qPCR) in primary murine T cells; assay type: cell-based, C57BL/6 mice; settings: PMA/Ionomycin, 10^−7 M, 10^−9 M and 10^−11 M
Excerpt: as §1, §2, §3

[1] = system: human keratinocytes (HaCaT); assay: Gene expression of pro-inflammatory cytokines (RT-qPCR) in human keratinocytes (HaCaT); assay type: cell-based; settings: HaCaT cells; PMA/Ionomycin; 10^−7 M, 10^−9 M and 10^−11 M
Excerpt: as §1, §2, §3

[2] = system: human keratinocyte cell line (HaCaT); assay: Cytokine secretion on protein level in activated human keratinocyte cell line HaCaT (13-plex FACS / Luminex, supernatant); assay type: cell-based; settings: HaCaT; PMA/Ionomycin; Luminex; all tested concentrations
How it was run: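 Stimulus: PMA/Ionomycin or IFN-γ, 48 h; cells: HaCaT or human peripheral-blood T-cells; tripeptide treatment; readout: supernatant cytokines via 13-plex FACS or Luminex, 48–72 h post-stimulation.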

N^α-methyl-(D)-Phe-(L)-Pro-Aib-OH [Example 14]
increased: concentration of anti-inflammatory cytokine IL-10 in the supernatants (primary human T-cells) | concentration of anti-inflammatory cytokine IL-10 in the supernatants (primary murine T-cells)
reduced: concentrations of pro-inflammatory cytokines IFN-γ and IL-17 in the supernatants (primary human T-cells) | concentrations of TNF-α and IL-17 in the serum (Balb/c mice) | epidermal thickness (Balb/c mice) | mRNA expression of IFN-γ and IL-36 in lesional skin (Balb/c mice; compared to vehicle control) | clinical score (Balb/c mice; day 9) | concentrations of pro-inflammatory cytokines IFN-γ and IL-17 in the supernatants (primary murine T-cells) | concentration of pro-inflammatory cytokine IFN-γ in the supernatants [2]
reduced expression: expression of pro-inflammatory cytokines IL-1β, IL-6 and TNF-α on mRNA level (primary human T cells) | expression of pro-inflammatory cytokines IL-1β, IL-6 and TNF-α on mRNA level (primary murine T cells) | expression of pro-inflammatory cytokines IL-1β, IL-6 and TNF-α on mRNA level [1]
